Results: PubChem BioAssay AID2060513 (Molecular Pharmacology Branch, DTP, NCI, 2025)

Test system: 299254-011-R-J1-PDC complex spheroids viability
Experiment: Anticancer human tumor 299254-011-R-J1-PDC patient-derived melanoma cell line growth inhibition [GQUAD]
Conditions: for IC50: curve of first compound; for viability, T/C: stronger effect = lower value
In short: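 Tumor cells were grown as complex spheroids with HUVEC endothelial cells and mesenchymal stem cells as stroma. G-quadruplex stabilizers were combined with targeted agents over half-log dilutions from near the clinical Cmax, or from 10 microM.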

[1] = second compound 0.0316 µM, first compound 0.0316 µM
[2] = second compound 0.0316 µM, first compound 0.1 µM
[3] = second compound 0.0316 µM, first compound 0.316 µM
[4] = second compound 0.0316 µM, first compound 1 µM
[5] = second compound 0.0316 µM, first compound 3.16 µM
[6] = second compound 0.0316 µM, first compound 10 µM
[7] = second compound 0.1 µM, first compound 0.0316 µM
[8] = second compound 0.1 µM, first compound 0.1 µM
[9] = second compound 0.1 µM, first compound 0.316 µM
[10] = second compound 0.1 µM, first compound 1 µM
[11] = second compound 0.1 µM, first compound 3.16 µM
[12] = second compound 0.1 µM, first compound 10 µM
[13] = second compound 0.316 µM, first compound 0.0316 µM
[14] = second compound 0.316 µM, first compound 0.1 µM
[15] = second compound 0.316 µM, first compound 0.316 µM
[16] = second compound 0.316 µM, first compound 1 µM
[17] = second compound 0.316 µM, first compound 3.16 µM
[18] = second compound 0.316 µM, first compound 10 µM
[19] = second compound 1 µM, first compound 0.0316 µM
[20] = second compound 1 µM, first compound 0.1 µM
[21] = second compound 1 µM, first compound 0.316 µM
[22] = second compound 1 µM, first compound 1 µM
[23] = second compound 1 µM, first compound 3.16 µM
[24] = second compound 1 µM, first compound 10 µM
[25] = second compound 3.16 µM, first compound 0.0316 µM
[26] = second compound 3.16 µM, first compound 0.1 µM
[27] = second compound 3.16 µM, first compound 0.316 µM
[28] = second compound 3.16 µM, first compound 1 µM
[29] = second compound 3.16 µM, first compound 3.16 µM
[30] = second compound 3.16 µM, first compound 10 µM
[31] = second compound 10 µM, first compound 0.0316 µM
[32] = second compound 10 µM, first compound 0.1 µM
[33] = second compound 10 µM, first compound 0.316 µM
[34] = second compound 10 µM, first compound 1 µM
[35] = second compound 10 µM, first compound 3.16 µM
[36] = second compound 10 µM, first compound 10 µM
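Further: spheroids exposed to the agents for seven days before readout.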
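Wherever viability, T/C is given: percent viability relative to DMSO vehicle control wells = 100%.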

Question: With `CCCS(=O)(=O)Nc1ccc(F)c(C(=O)c2c[nH]c3ncc(-c4ccc(Cl)cc4)cc23)c1F` + Cc1cnc(CNC(=O)c2c(=O)c3ccc(N4CCCN(C)CC4)nc3n3c2sc2ccccc23)cn1 as the compound, how does the IC50 (second compound 0.0316 µM) read?
Answer: 9.46 µM

Question: What about the IC50 (second compound 0.1 µM) of the same compound?
Answer: 8.9 µM

Question: And the IC50 (second compound 0.316 µM)?
Answer: 9.48 µM

Question: What about the IC50 (second compound 1 µM) of the same compound?
Answer: 8.5 µM

Question: What about the IC50 (second compound 3.16 µM) of the same compound?
Answer: 7.67 µM

Question: What about the IC50 (second compound 10 µM) of the same compound?
Answer: < 0.0316 µM

Question: And the viability, T/C [1]?
Answer: 107%

Question: What about the viability, T/C [2] of the same compound?
Answer: 94%

Question: What about the viability, T/C [3] of the same compound?
Answer: 83.1%

Question: And the viability, T/C [4]?
Answer: 106%

Question: And the viability, T/C [5]?
Answer: 130%

Question: And the viability, T/C [6]?
Answer: 47.1%

Question: What about the viability, T/C [7] of the same compound?
Answer: 119%

Question: And the viability, T/C [8]?
Answer: 129%

Question: What about the viability, T/C [9] of the same compound?
Answer: 92.9%

Question: What about the viability, T/C [10] of the same compound?
Answer: 128%

Question: What about the viability, T/C [11] of the same compound?
Answer: 116%

Question: What about the viability, T/C [12] of the same compound?
Answer: 42.6%

Question: And the viability, T/C [13]?
Answer: 92.8%

Question: What about the viability, T/C [14] of the same compound?
Answer: 109%

Question: What about the viability, T/C [15] of the same compound?
Answer: 92.9%

Question: What about the viability, T/C [16] of the same compound?
Answer: 99%

Question: And the viability, T/C [17]?
Answer: 113%

Question: And the viability, T/C [18]?
Answer: 47.5%

Question: And the viability, T/C [19]?
Answer: 88.5%

Question: And the viability, T/C [20]?
Answer: 85%

Question: And the viability, T/C [21]?
Answer: 105%

Question: And the viability, T/C [22]?
Answer: 96.8%

Question: What about the viability, T/C [23] of the same compound?
Answer: 106%

Question: What about the viability, T/C [24] of the same compound?
Answer: 42.4%

Question: And the viability, T/C [25]?
Answer: 85.5%

Question: And the viability, T/C [26]?
Answer: 96.6%

Question: And the viability, T/C [27]?
Answer: 106%

Question: And the viability, T/C [28]?
Answer: 91.5%

Question: And the viability, T/C [29]?
Answer: 118%

Question: And the viability, T/C [30]?
Answer: 35.1%

Question: And the viability, T/C [31]?
Answer: 4.58%

Question: What about the viability, T/C [32] of the same compound?
Answer: 0.48%

Question: What about the viability, T/C [33] of the same compound?
Answer: 0.57%

Question: What about the viability, T/C [34] of the same compound?
Answer: 0.54%

Question: What about the viability, T/C [35] of the same compound?
Answer: 0.42%

Question: And the viability, T/C [36]?
Answer: 0.34%

Question: Which results are given for `C#Cc1c(F)ccc2cc(O)cc(-c3ncc4c(N5CC6CCC(C5)N6)nc(OCC56CCCN5CC(F)C6)nc4c3F)c12` (stereo unspecified) + Cc1[nH]c2ccc(F)cc2c1-c1nc2c3cccnc3c3ncccc3c2[nH]1?
Answer: IC50 (second compound 0.0316 µM): > 10 µM; IC50 (second compound 0.1 µM): > 10 µM; IC50 (second compound 0.316 µM): > 10 µM; IC50 (second compound 1 µM): > 10 µM; IC50 (second compound 3.16 µM): > 10 µM; IC50 (second compound 10 µM): > 10 µM; viability, T/C [1]: 109%; viability, T/C [2]: 102%; viability, T/C [3]: 87.9%; viability, T/C [4]: 102%; viability, T/C [5]: 90.8%; viability, T/C [6]: 72.5%; viability, T/C [7]: 83.1%; viability, T/C [8]: 103%; viability, T/C [9]: 103%; viability, T/C [10]: 100%; viability, T/C [11]: 103%; viability, T/C [12]: 72.9%; viability, T/C [13]: 89.4%; viability, T/C [14]: 102%; viability, T/C [15]: 88.8%; viability, T/C [16]: 86.6%; viability, T/C [17]: 111%; viability, T/C [18]: 75.7%; viability, T/C [19]: 129%; viability, T/C [20]: 95.2%; viability, T/C [21]: 116%; viability, T/C [22]: 104%; viability, T/C [23]: 86.6%; viability, T/C [24]: 80.8%; viability, T/C [25]: 102%; viability, T/C [26]: 112%; viability, T/C [27]: 97.2%; viability, T/C [28]: 88.9%; viability, T/C [29]: 114%; viability, T/C [30]: 91.7%; viability, T/C [31]: 87.2%; viability, T/C [32]: 100%; viability, T/C [33]: 98.4%; viability, T/C [34]: 99.1%; viability, T/C [35]: 105%; viability, T/C [36]: 95.6%

Question: Which IC50 (second compound 0.0316 µM) does the source give for `Cc1[nH]c2ccccc2c1CCNCc1ccc(/C=C/C(=O)NO)cc1` + Cc1[nH]c2ccc(F)cc2c1-c1nc2c3cccnc3c3ncccc3c2[nH]1 here?
Answer: 0.123 µM

Question: And the IC50 (second compound 0.1 µM)?
Answer: 0.128 µM

Question: What about the IC50 (second compound 0.316 µM) of the same compound?
Answer: 0.198 µM

Question: And the IC50 (second compound 1 µM)?
Answer: 0.187 µM

Question: And the IC50 (second compound 3.16 µM)?
Answer: 0.181 µM

Question: What about the IC50 (second compound 10 µM) of the same compound?
Answer: 0.163 µM

Question: What about the viability, T/C (second compound 0.0316 µM, first compound 0.000999 µM) of the same compound?
Answer: 95.9%

Question: And the viability, T/C (second compound 0.0316 µM, first compound 0.00316 µM)?
Answer: 81.8%

Question: And the viability, T/C (second compound 0.0316 µM, first compound 0.00999 µM)?
Answer: 92.5%

Question: What about the viability, T/C [1] of the same compound?
Answer: 81.3%

Question: What about the viability, T/C (second compound 0.0316 µM, first compound 0.0999 µM) of the same compound?
Answer: 56.3%

Question: And the viability, T/C [3]?
Answer: 21.5%

Question: What about the viability, T/C (second compound 0.1 µM, first compound 0.000999 µM) of the same compound?
Answer: 95.3%

Question: What about the viability, T/C (second compound 0.1 µM, first compound 0.00316 µM) of the same compound?
Answer: 119%

Question: And the viability, T/C (second compound 0.1 µM, first compound 0.00999 µM)?
Answer: 81.8%

Question: What about the viability, T/C [7] of the same compound?
Answer: 71.1%

Question: And the viability, T/C (second compound 0.1 µM, first compound 0.0999 µM)?
Answer: 64.5%

Question: And the viability, T/C [9]?
Answer: 22%

Question: What about the viability, T/C (second compound 0.316 µM, first compound 0.000999 µM) of the same compound?
Answer: 88.1%

Question: What about the viability, T/C (second compound 0.316 µM, first compound 0.00316 µM) of the same compound?
Answer: 99.4%

Question: And the viability, T/C (second compound 0.316 µM, first compound 0.00999 µM)?
Answer: 95.8%

Question: What about the viability, T/C [13] of the same compound?
Answer: 77.6%

Question: And the viability, T/C (second compound 0.316 µM, first compound 0.0999 µM)?
Answer: 86.3%

Question: And the viability, T/C [15]?
Answer: 25.5%

Question: What about the viability, T/C (second compound 1 µM, first compound 0.000999 µM) of the same compound?
Answer: 96.1%

Question: What about the viability, T/C (second compound 1 µM, first compound 0.00316 µM) of the same compound?
Answer: 87.4%

Question: And the viability, T/C (second compound 1 µM, first compound 0.00999 µM)?
Answer: 93.7%

Question: What about the viability, T/C [19] of the same compound?
Answer: 89%

Question: And the viability, T/C (second compound 1 µM, first compound 0.0999 µM)?
Answer: 81.8%

Question: What about the viability, T/C [21] of the same compound?
Answer: 23.6%

Question: What about the viability, T/C (second compound 3.16 µM, first compound 0.000999 µM) of the same compound?
Answer: 93.8%

Question: What about the viability, T/C (second compound 3.16 µM, first compound 0.00316 µM) of the same compound?
Answer: 79.2%

Question: What about the viability, T/C (second compound 3.16 µM, first compound 0.00999 µM) of the same compound?
Answer: 86.6%

Question: And the viability, T/C [25]?
Answer: 85.8%

Question: And the viability, T/C (second compound 3.16 µM, first compound 0.0999 µM)?
Answer: 74.8%

Question: And the viability, T/C [27]?
Answer: 26.7%

Question: And the viability, T/C (second compound 10 µM, first compound 0.000999 µM)?
Answer: 78.2%

Question: What about the viability, T/C (second compound 10 µM, first compound 0.00316 µM) of the same compound?
Answer: 105%

Question: And the viability, T/C (second compound 10 µM, first compound 0.00999 µM)?
Answer: 94.6%

Question: What about the viability, T/C [31] of the same compound?
Answer: 84.1%

Question: And the viability, T/C (second compound 10 µM, first compound 0.0999 µM)?
Answer: 74.8%

Question: What about the viability, T/C [33] of the same compound?
Answer: 17.9%
